Measurements: patent publication US10988743B2, “Coryneform bacterial transformant and method for producing 4-aminobenzoic acid or salt thereof using same” (RESEARCH INSTITUTE OF INNOVATIVE TECHNOLOGY FOR THE EARTH, priority 2016, dated 2021)
“Also recorded” adds a separate entry of the source.

How the values were obtained:
Format in all cases: cell-based
[1] = system: Corynebacterium glutamicum strain R; experiment: Influence of para-aminobenzoic acid on glucose consumption rate (jar fermenter); details: 0, 50, 100 or 200 mM para-aminobenzoic acid, 5% glucose, 33° C., pH 7.0
Description: Influences of para-aminobenzoic acid on the glucose consumption rate were examined by a method described below, using Corynebacterium glutamicum strain R.
After a wild strain of Corynebacterium glutamicum was inoculated in 10 ml of the A-liquid medium containing 2% glucose, aerobic shaking culture was carried out at 33° C. for 18 hours. After the same strain was inoculated in 100 ml of the A-liquid medium containing 2% glucose, aerobic shaking culture was carried out at 33° C. for 12 hours. […]
Bacterial cells of the strain grown under the above-described conditions were collected by centrifugation (4° C., 5000×g, 10 minutes), and the bacterial cells thus obtained were washed with 0.9% sodium chloride aqueous solution once. […] The glucose concentration in the reaction solution was monitored by using a glucose sensor.

[2] = system: Saccharomyces cerevisiae W303; experiment: Growth inhibition by para-aminobenzoic acid in aerobic culture (OD610); details: aerobic shaking culture 30° C.
Description: (§1) Experiments about growth inhibition by para-aminobenzoic acid in aerobic culture were carried out, regarding Corynebacterium glutamicum, Escherichia coli, Streptomyces lividans, Pseudomonas putida, and Saccharomyces cerevisiae. No example of Pseudomonas putida S12 used in the present experiment has been reported to be a para-aminobenzoic acid producing host, but it was used as a comparative example, since it has been reported to be a solvent resistant bacterium and could be considered to have excellent resistance to para-aminobenzoic acid.
Saccharomyces cerevisiae W303 was applied to YEPD-agar plate [containing 2% polypeptone, 1% yeast extract, 2% glucose, and 1.5% agar] and was incubated at 30° C. for 20 hours in a dark place. Saccharomyces cerevisiae grown on the plate described above was inoculated in the YEPD-liquid medium [containing 2% polypeptone, 1% yeast extract, and 2% glucose], and aerobic shaking culture was carried out at 30° C. for 13 hours. Saccharomyces cerevisiae grown under the above-described conditions was inoculated in 100 ml of YEPD-liquid medium so that the initial bacterial cell concentration OD610=0.05. […] The growth of bacterial cells was determined by measuring OD610.
(§2) How the addition of para-aminobenzoic acid to medium influenced aerobic growth was analyzed, and the results are shown in FIG. 1.

Pseudomonas putida S12 = experiment: as above
Description: as §1
Pseudomonas putida S12 was applied to the LB-agar plate, and was incubated at 30° C. for 15 hours in a dark place. Pseudomonas putida grown on the plate described above was inoculated in the LB-liquid medium, and aerobic shaking culture was carried out at 30° C. for 13 hours. Pseudomonas putida grown under the above-described conditions was inoculated in 100 ml of LB-liquid medium so that the initial bacterial cell concentration OD610=0.05, simultaneously, para-aminobenzoic acid was added so that the final concentrations thereof became 0, 100, 200, 300 mM, and aerobic shaking culture was carried out at 30° C. The growth of bacterial cells was determined by measuring absorbance of OD610.
as §2

[3] = system: Streptomyces lividans 1326; experiment: as above; details: for growth of Streptomyces lividans 1326: aerobic shaking culture 28° C.
Description: as §1
Streptomyces lividans 1326 was applied to LB-agar plate, and was incubated at 28° C. for 24 hours in a dark place. Streptomyces lividans grown on the plate described above was inoculated in LB-liquid medium with a coil spring, and aerobic shaking culture was carried out at 28° C. for 24 hours. Streptomyces lividans grown under the above-described conditions was inoculated in 10 ml of LB-liquid medium with a coil spring so that the initial bacterial cell concentration OD610=0.2. Simultaneously, para-aminobenzoic acid was added so that the final concentrations thereof became 0, 100, 200, 300 mM, and aerobic shaking culture was carried out at 28° C. The growth of bacterial cells was determined by measuring OD610.
as §2

[4] = system: Corynebacterium glutamicum strain R; experiment: as above; details: aerobic shaking culture 33° C.
Description: as §1
Corynebacterium glutamicum strain R was applied to an A-agar plate containing glucose at 4%, and was incubated at 33° C. for 15 hours in a dark place. One platinum loop of Corynebacterium glutamicum grown on the plate described above was inoculated in a test tube having therein 10 ml of the A-liquid medium containing of glucose at 4%, and was subjected to aerobic shaking culture at 33° C. for 15 hours. Corynebacterium glutamicum grown under the above-described conditions was inoculated in 10 ml of the A-liquid medium containing glucose at 4% so that the initial bacterial cell concentration OD610=0.05. […] The growth of bacterial cells was determined by measuring OD610.
as §2

Escherichia coli JM109 = experiment: as above; details: aerobic shaking culture 37° C.
Description: as §1
Escherichia coli JM109 was applied to LB-agar plate [containing 1% polypeptone, 0.5% yeast extract, 0.5% sodium chloride, and 1.5% agar], and was incubated at 37° C. for 15 hours in a dark place. Escherichia coli grown on the plate described above was inoculated in LB-liquid medium [containing 1% polypeptone, 0.5% yeast extract, and 0.5% sodium chloride], and was subjected to aerobic shaking culture at 37° C. for 13 hours. Escherichia coli grown under the above-described conditions was inoculated in 100 ml of LB-liquid medium so that the initial bacterial cell concentration OD610=0.05. […] The growth of bacterial cells was determined by measuring OD610.
as §2

For `Nc1ccc(C(=O)O)cc1` [para-aminobenzoic acid, 4-aminobenzoic acid], the “saccharide (glucose) consumption rate of Corynebacterium glutamicum” value [1] was “no substantial decrease”, the “growth of Saccharomyces cerevisiae W303” value ([2]; 200 mM para-aminobenzoic acid) was “strongly inhibited” and the “growth of Saccharomyces cerevisiae W303” value ([2]; 300 mM para-aminobenzoic acid) was “extremely strongly inhibited; also recorded: substantially completely inhibited”. For the same compound, the “growth of Pseudomonas putida S12” value (Pseudomonas putida S12; 100 mM para-aminobenzoic acid, aerobic shaking culture 30° C.) was “substantially completely inhibited”, the “growth of Pseudomonas putida” value (Pseudomonas putida S12; 300 mM para-aminobenzoic acid) was “substantially completely inhibited” and the “growth of Streptomyces lividans 1326” value ([3]; 100 mM para-aminobenzoic acid) was “significantly inhibited”. For the same compound, the “growth of Streptomyces lividans 1326” value ([3]; 200 mM para-aminobenzoic acid) was “substantially completely inhibited”, the “growth of Streptomyces lividans” value ([3]; 300 mM para-aminobenzoic acid) was “substantially completely inhibited” and the “growth of Corynebacterium glutamicum strain R” value ([4]; 300 mM para-aminobenzoic acid) was “able to grow”. For the same compound, the “growth of Corynebacterium glutamicum” value ([4]; 400 mM para-aminobenzoic acid) was “able to grow”, the “growth of Escherichia coli JM109” value (Escherichia coli JM109; 100 mM para-aminobenzoic acid) was “significantly inhibited” and the “growth of Escherichia coli JM109” value (Escherichia coli JM109; 300 mM para-aminobenzoic acid) was “substantially completely inhibited”.
